Here are results for 16 compounds from ChEMBL document CHEMBL1811886 (J Med Chem, 2011).

Data set [1] addresses T1, Histamine H3 receptor (Rattus norvegicus, UniProt Q9QYN8). Kind of data set: Displacement of [3H]NAMH from rat histamine H3 receptor expressed in CHO cells. Format: cell-based. (In a radioligand displacement assay an active substance lowers the binding of a labelled ligand.)
A short description of data set [2]: Systemic clearance in fasted Sprague-Dawley rat at 1 mg/kg, iv after 6 to 24 hrs by LC-MS/MS analysis. Format: ADME, organism-based. Further details: dose 1 mg/kg, route intravenous. The settings on record: in vivo.
Data set [3] in a line: Ratio of drug uptake in brain to plasma of fasted Sprague-Dawley rat at 1 mg/kg, iv after 6 to 24 hrs by LC-MS/MS analysis. Format: ADME, organism-based. The settings on record: read-out: BPR. Further details: dose 1 mg/kg, route intravenous.
The nature of data set [4]: Terminal half life in fasted Sprague-Dawley rat at 1 mg/kg, iv after 6 to 24 hrs by LC-MS/MS analysis. Format: ADME, organism-based. On the set-up: dose 1 mg/kg, route intravenous. The settings on record: in vivo, read-out: beta t1/2 (converted).
Data set [5] can be described thus: Oral bioavailability in fasted Sprague-Dawley rat at 5 mg/kg after 6 hrs by LC-MS/MS analysis. Format: ADME, organism-based. Particulars: in vivo.
The target in data set [6] is T2, Histamine H3 receptor (Homo sapiens, UniProt Q9Y5N1). As to the kind of experiment: Displacement of [3H]NAMH from human histamine H3 receptor expressed in CHO cells. Format: cell-based.
T2 sequence (Q9Y5N1 whole entry): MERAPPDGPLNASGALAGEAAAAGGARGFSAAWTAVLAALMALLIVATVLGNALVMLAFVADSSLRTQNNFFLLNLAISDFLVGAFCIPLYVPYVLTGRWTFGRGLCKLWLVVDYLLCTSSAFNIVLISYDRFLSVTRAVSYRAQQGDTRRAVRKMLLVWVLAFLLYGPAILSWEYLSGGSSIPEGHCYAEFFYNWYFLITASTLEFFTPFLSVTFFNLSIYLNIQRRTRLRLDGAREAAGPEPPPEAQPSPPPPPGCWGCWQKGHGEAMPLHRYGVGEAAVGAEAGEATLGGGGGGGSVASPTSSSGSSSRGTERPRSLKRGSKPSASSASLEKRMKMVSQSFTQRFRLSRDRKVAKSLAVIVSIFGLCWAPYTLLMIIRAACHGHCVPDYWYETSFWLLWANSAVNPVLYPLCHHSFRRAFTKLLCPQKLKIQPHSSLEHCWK
Data set [7] concerns the target Histamine H1 receptor (Homo sapiens) (UniProt P35367). As to the kind of experiment: Inhibition of human histamine H1 receptor at 10 uM.
Data set [8] concerns the target Histamine H4 receptor (Homo sapiens) (UniProt Q9H3N8). Kind of data set: Inhibition of human histamine H4 receptor at 10 uM.
Data set [9] concerns the target T2, Histamine H3 receptor. Kind of data set: Antagonist activity against human histamine H3 receptor assessed as inhibition of R-alpha-methylhistamine induced [35S]GTPgammaS binding. Format: functional. (GTPγS is a poorly hydrolysed GTP analogue; its binding reports G protein activation.)
Data set [10] has as its target Histamine H2 receptor (Homo sapiens) (UniProt P25021). As to the kind of experiment: Inhibition of human histamine H2 receptor at 10 uM.
Data set [11] deals with T2, Histamine H3 receptor. Kind of data set: Inverse agonist activity at human histamine H3 receptor assessed as inhibition of R-alpha-methylhistamine induced [35S]GTPgammaS binding. Format: functional.
For data set [12], the target named is T1, Histamine H3 receptor. As to the kind of experiment: Inverse agonist activity at rat histamine H3 receptor assessed as inhibition of R-alpha-methylhistamine induced [35S]GTPgammaS binding. Format: functional.
Data set [13] can be described thus: Oral bioavailability in fasted Sprague-Dawley rat at 10 mg/kg after 24 hrs by LC-MS/MS analysis. Format: ADME, organism-based. Particulars: in vivo.
Another data set has as its system Rattus norvegicus. As to the kind of experiment: Inhibition of RAMH-induced dipsogenia in Long Evans rat administered as po 15 mins prior to RAMH challenge. Format: functional.
The target in data set [14] is Voltage-gated inwardly rectifying potassium channel KCNH2 (Homo sapiens, UniProt Q12809). As to the kind of experiment: Inhibition of recombinant human ERG channel expressed in human HEK 293 cells by patch clamp assay. Format: cell-based, HEK293. Background: Patch clamp records ionic current or voltage across a cell membrane.
Sequence of Voltage-gated inwardly rectifying potassium channel KCNH2 (Q12809 whole entry): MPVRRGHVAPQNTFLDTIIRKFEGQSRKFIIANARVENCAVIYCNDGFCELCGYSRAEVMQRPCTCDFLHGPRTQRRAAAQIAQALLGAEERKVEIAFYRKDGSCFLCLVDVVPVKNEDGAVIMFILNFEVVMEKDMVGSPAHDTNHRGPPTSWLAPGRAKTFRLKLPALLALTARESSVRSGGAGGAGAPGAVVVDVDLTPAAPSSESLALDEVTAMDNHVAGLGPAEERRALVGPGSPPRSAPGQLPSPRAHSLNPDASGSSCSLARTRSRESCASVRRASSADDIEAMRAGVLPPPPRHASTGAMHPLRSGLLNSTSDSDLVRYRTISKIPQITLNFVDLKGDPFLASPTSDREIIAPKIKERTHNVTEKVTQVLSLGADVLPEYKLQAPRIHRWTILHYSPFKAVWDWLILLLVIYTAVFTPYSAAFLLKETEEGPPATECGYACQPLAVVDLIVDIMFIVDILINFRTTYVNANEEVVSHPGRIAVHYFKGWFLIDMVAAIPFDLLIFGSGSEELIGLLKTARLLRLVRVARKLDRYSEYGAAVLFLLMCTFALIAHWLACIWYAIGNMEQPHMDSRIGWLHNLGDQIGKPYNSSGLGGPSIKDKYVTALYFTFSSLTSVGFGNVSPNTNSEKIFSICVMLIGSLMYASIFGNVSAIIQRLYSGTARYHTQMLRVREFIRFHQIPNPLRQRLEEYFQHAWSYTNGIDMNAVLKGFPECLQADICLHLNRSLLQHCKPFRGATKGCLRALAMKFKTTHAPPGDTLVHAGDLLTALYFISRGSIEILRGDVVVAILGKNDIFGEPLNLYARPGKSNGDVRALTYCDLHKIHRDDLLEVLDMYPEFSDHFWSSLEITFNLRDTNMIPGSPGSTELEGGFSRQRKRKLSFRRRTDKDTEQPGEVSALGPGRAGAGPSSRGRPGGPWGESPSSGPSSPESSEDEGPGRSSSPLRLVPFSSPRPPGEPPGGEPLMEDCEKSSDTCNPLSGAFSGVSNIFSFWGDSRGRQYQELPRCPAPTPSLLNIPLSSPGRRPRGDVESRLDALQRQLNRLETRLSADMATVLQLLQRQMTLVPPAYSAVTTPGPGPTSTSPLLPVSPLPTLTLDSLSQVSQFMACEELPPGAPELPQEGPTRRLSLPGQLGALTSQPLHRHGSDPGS
A short description of data set [15]: Distribution coefficient log D of the compound at pH 7.4. Format: physicochemical. Particulars: octanol/water.
Data set [16] can be described thus: Bioavailability in fasted Sprague-Dawley rat at 1 mg/kg, iv after 6 to 24 hrs by LC-MS/MS analysis. Format: ADME, organism-based. Particulars: in vivo.
The nature of data set [17]: Dissociation constant, pKa of the compound. Format: physicochemical.

T1 sequence (Q9QYN8 whole entry): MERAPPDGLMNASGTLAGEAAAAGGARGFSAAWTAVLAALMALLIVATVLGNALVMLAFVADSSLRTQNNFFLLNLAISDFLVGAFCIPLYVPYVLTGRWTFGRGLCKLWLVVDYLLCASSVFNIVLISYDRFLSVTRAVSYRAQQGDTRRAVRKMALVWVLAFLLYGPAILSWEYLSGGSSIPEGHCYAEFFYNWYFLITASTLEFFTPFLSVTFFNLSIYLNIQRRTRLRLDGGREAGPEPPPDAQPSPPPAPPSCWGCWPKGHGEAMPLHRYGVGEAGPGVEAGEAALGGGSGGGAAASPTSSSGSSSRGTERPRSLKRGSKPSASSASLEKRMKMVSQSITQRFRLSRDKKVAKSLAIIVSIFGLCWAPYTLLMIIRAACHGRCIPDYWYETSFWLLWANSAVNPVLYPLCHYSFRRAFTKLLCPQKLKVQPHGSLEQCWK
Sequence of Histamine H4 receptor (Homo sapiens) (Q9H3N8 whole entry): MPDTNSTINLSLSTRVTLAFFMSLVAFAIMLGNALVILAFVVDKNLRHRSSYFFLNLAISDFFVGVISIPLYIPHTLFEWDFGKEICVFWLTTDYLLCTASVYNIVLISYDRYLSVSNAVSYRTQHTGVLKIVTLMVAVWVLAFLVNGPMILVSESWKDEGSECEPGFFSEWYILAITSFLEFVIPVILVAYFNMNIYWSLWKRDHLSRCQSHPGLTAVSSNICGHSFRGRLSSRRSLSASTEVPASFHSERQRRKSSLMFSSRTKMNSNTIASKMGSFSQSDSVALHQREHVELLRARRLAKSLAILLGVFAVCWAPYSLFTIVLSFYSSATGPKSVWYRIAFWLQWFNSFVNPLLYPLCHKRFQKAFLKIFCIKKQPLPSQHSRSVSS
Sequence of Histamine H2 receptor (Homo sapiens) (P25021 whole entry): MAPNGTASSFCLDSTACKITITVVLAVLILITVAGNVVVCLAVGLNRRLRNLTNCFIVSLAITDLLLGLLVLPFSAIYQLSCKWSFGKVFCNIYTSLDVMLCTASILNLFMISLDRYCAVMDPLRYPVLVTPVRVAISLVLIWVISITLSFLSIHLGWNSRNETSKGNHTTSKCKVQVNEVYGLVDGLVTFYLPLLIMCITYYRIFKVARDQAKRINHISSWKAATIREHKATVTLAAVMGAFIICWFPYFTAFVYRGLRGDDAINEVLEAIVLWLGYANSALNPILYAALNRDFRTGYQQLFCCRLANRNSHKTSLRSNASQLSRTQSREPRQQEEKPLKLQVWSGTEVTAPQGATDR
Sequence of Histamine H1 receptor (Homo sapiens) (P35367 whole entry): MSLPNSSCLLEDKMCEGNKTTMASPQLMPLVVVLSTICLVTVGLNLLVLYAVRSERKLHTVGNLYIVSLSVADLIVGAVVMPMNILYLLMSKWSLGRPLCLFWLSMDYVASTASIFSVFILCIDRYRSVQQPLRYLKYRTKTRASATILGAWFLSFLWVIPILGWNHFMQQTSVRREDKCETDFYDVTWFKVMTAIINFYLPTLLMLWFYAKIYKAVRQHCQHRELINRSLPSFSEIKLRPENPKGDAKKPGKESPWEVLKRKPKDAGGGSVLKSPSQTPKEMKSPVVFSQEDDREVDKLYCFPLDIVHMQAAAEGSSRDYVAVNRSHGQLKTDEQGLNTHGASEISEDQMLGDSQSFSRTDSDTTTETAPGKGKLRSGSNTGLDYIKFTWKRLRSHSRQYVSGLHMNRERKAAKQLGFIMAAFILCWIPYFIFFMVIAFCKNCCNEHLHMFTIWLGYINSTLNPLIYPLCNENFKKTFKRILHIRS

As to `Cn1nc(-c2ccc(OCCCN3CCCCC3)cc2)ccc1=O`, the inhibitory constant (Ki) (as a rule, the dissociation constant of the complex between target and ligand, obtained from inhibition or displacement) on Histamine H3 receptor [1] came out at 106 nM; at Histamine H3 receptor [6] it was 21 nM. The clearance (usually the rate of elimination divided by the concentration) in data set [2] is 50 mL/min/kg. The Kp in [3] came to 5.3. Further, the half-life in data set [4] is 1.2 h. The bioavailability (as a rule, dose-corrected exposure relative to a reference, in per cent) in data set [5] stood at 22%.
Turning to `CCn1nc(-c2ccc(OCCCN3CCC[C@H]3C)cc2)ccc1=O`, the Ki at Histamine H3 receptor [1] was 11 nM; on Histamine H3 receptor [6] it was 3.9 nM. The compound also displayed a clearance in [2] of 238 mL/min/kg. In data set [3], the Kp amounted to 1.5. For the same compound, in [4], the half-life is 0.4 h. In addition, in data set [5], the bioavailability is 18%.
As for `C[C@@H]1CCCN1CCCOc1ccc(-c2ccc(=O)n(Cc3ccccc3)n2)cc1`, the Ki turned out to be 12 nM at Histamine H3 receptor [1] and 6.9 nM at Histamine H3 receptor [6]. The same compound yielded a clearance in data set [2] of 46 mL/min/kg. The Kp in [3] is 3.8. Also, the half-life in data set [4] was 0.7 h. The bioavailability in data set [5] was less than 1%.
On to `O=c1ccc(-c2ccc(OCCCN3CCCCC3)cc2)n[nH]1`, for which the Ki on Histamine H3 receptor [1] amounted to 37 nM; on Histamine H3 receptor [6], 8.7 nM. Further, the clearance in data set [2] came to 4.9 mL/min/kg. Also, the Kp in data set [3] stood at 1.9. The half-life in data set [4] was 0.9 h. Moreover, in data set [5], the bioavailability was determined as 11%.
With `C[C@@H]1CCCN1CCCOc1ccc(-c2ccc(=O)[nH]n2)cc1`, the inhibition in data set [7], in data set [8] and in [10] was less than 11% throughout. Besides, on Histamine H3 receptor [9], the antagonist dissociation constant (Kb) (usually the equilibrium dissociation constant of an antagonist, usually derived from a functional assay) was 0.4 nM.
As to `CC(C)n1nc(-c2ccc(OCCCN3CCC[C@H]3C)cc2)ccc1=O`, the figures for the inhibition constant (Ki) at Histamine H3 receptor [1] and at Histamine H3 receptor [6] were 7.6 nM and 4.8 nM, respectively. The clearance in [2] was determined as 258 mL/min/kg. Further, the Kp in data set [3] amounted to 2.1. In data set [4], the half-life is 0.3 h. The same compound registered a bioavailability in data set [5] of 5%.
As for `Cn1nc(-c2ccc(OCCCN3CCC[C@H]3CO)cc2)ccc1=O`, affinity at Histamine H3 receptor [1] was put at a Ki of 48 nM. The clearance in [2] stood at 90 mL/min/kg. Further, the Kp in data set [3] was 1.4. The half-life in data set [4] was 1 h. In data set [5], this compound came in with a bioavailability of 43%.
Consider `O=c1ccc(-c2ccc(OCCCN3CCCC3)cc2)n[nH]1`, for which the Ki was found to be 45 nM at Histamine H3 receptor [1] and 16 nM on Histamine H3 receptor [6].
In turn, `Cn1nc(-c2ccc(OCCCN3CCC[C@@H]3CO)cc2)ccc1=O` came in with an inhibition constant Ki at Histamine H3 receptor [1] of 427 nM.
For `C[C@@H]1CCCN1CCCOc1ccc(-c2ccc(=O)n(-c3ccccc3)n2)cc1`, the Ki at Histamine H3 receptor [1] amounted to 7.9 nM; at Histamine H3 receptor [6], 2.5 nM. The compound also returned a clearance in data set [2] of 11.7 mL/min/kg. The Kp in [3] was determined as 6.2. Also, the half-life in data set [4] was 2.1 h. The bioavailability in data set [5] turned out to be 10%.
As for `C[C@H]1CCCN1CCCOc1ccc(-c2ccc(=O)[nH]n2)cc1`, the results for the inhibition constant (Ki) on Histamine H3 receptor [1] and at Histamine H3 receptor [6] were 50 nM and 16 nM, respectively. In data set [2], this compound came in with a clearance of 14.5 mL/min/kg. The Kp in data set [3] is 3.1. For the same compound, the half-life in [4] is 1.6 h. In data set [5], the bioavailability is 25%.
Regarding `C[C@@H]1CCCN1CCCOc1ccc(-n2ncccc2=O)cc1`, the Ki came to 347 nM on Histamine H3 receptor [1] and 82 nM at Histamine H3 receptor [6].
For `C[C@@H]1CCCN1CCCOc1ccc(-c2cn[nH]c(=O)c2)cc1`, the Ki at Histamine H3 receptor [1] was determined as 8.5 nM; at Histamine H3 receptor [6], 2.8 nM. The clearance in [2] turned out to be 9.6 mL/min/kg. The Kp in data set [3] amounted to 1.8. For the same compound, the half-life in data set [4] was 1 h. The EC50 (commonly the concentration that produces a half-maximal response) on Histamine H3 receptor [11] was 1.1 nM; on Histamine H3 receptor [12] it was 2.1 nM. This compound registered a bioavailability in data set [13] of 24%. In addition, the median effective dose (ED50) (as a rule, the dose at which the effect has come halfway, by size or by number of responders) in the data set on Rattus norvegicus is 0.03 mg/kg. The Kb at Histamine H3 receptor [9] was 0.4 nM. Also, the IC50 – broadly, the midpoint of a concentration-inhibition curve – in data set [14] was 9500 nM.
In the case of `C[C@@H]1CCCN1CCCOc1ccc(-c2ccc(=O)n(C)n2)cc1`, the figures for the inhibition constant Ki on Histamine H3 receptor [1] and on Histamine H3 receptor [6] were 6.3 nM and 1.4 nM, respectively. The compound further displayed a clearance in [2] of 45 mL/min/kg. Besides, the Kp in data set [3] stood at 3.5. The half-life in [4] was 1.6 h. For the same compound, the concentration giving a half-maximal response (EC50) turned out to be 1 nM at Histamine H3 receptor [11] and 2.2 nM on Histamine H3 receptor [12]. Further, the logD (commonly the decadic logarithm of the distribution of all forms, ionised or not, between an organic phase and buffer at a given pH) in [15] was determined as 0.8. The bioavailability in [13] stood at 39%. The median effective dose (ED50) with Rattus norvegicus is 0.14 mg/kg. At Histamine H3 receptor [9], the Kb stood at 0.5 nM. Besides, the concentration for half-maximal inhibition (IC50) in data set [14] amounted to 13000 nM.
As to `C[C@@H]1CCCN1CCc1cc2cc(-c3ccc(C#N)cc3)ccc2o1`, the clearance in data set [2] came to 39 mL/min/kg. In addition, the Kp in data set [3] amounted to 32. Besides, in data set [4], the half-life was 1.5 h. Also, the bioavailability in data set [16] was more than 18%.
For `O=c1ccc(-c2ccc(OCCCN3CCOCC3)cc2)n[nH]1`, the values for the Ki on Histamine H3 receptor [1] and on Histamine H3 receptor [6] were 822 nM and 767 nM, respectively. Further, the pKa (commonly the negative logarithm of the acid dissociation constant) in data set [17] turned out to be 7.1.
